From patent publication US12473249B2, “Aromatic compounds and pharmaceutical uses thereof” (BASF AS, priority 2018, dated 2025) come the findings set out here.

Marks after values point to notes of the source that are not given here.

Holding throughout (format): in vivo, mouse
The test system of one series is APOE*3Leiden mice. The series can be described thus: Plasma lipids in high-fat diet fed APOE*3Leiden mice. The note with it: for triglyceride levels over 4 weeks: further study with reference compounds, 0.3 mmol/kg bw/day, FIG. 31. How it is done:
The APOE*3Leiden mouse expresses a variant of the human apolipoprotein E3 (APOE3), the APOE*3Leiden, in addition to the human apolipoprotein C1 (APOC1).
Studies were performed in APOE*3Leiden mice (13-15 weeks old) placed on a semi-synthetic high fat diet (24% fat w/w) with 0.25% cholesterol w/w. After a 4-week run-in period, mice were sub-divided into groups of 5 mice each and administration of Compound A, Compound B, or vehicle alone was started. Both Compound B and Compound A were administered at a dose of 0.3 mmol/kg bw/day via diet. Sunflower oil (10 ml v/w) was used as a vehicle to facilitate mixing. After 4 weeks of treatment mice were sacrificed by C02 asphyxiation and plasma cholesterol and triglycerides were measured using commercially available kits (Roche*/Hitachi©).
In a further study, performed as described above, the effects of Compound A, Compound B, and Compound C were compared with the effects of Reference Compound 1 ((Z)-3-(pent-2-en-1-yloxy)benzoic acid) and Reference Compound 2 ((Z)-4-(pent-2-en-1-yloxy)benzoic acid) on triglyceride levels. […] The results of this study are described in Example 17.

The next series deals with C57BL/6 mice. The series can be described thus: Hepatic steatosis and organ mass in oral PN diet fed C57BL/6 mice, subsequent experiment at two dosages (H&E). The note with it: 19 days. The text has this: Male C57BL/6 mice, 6 to 8 weeks old at initiation of the experiments, were used for all experimental groups. Mice were fed either an ad libitum diet of standard rodent chow (calorie composition: 26% protein, 14% fat, 60% carbohydrates) and water or a parenteral nutrition (PN) solution that mimics the PN diet used in neonatal intensive care units. The PN solution was a fat-free, high-carbohydrate liquid diet (20% dextrose, 2% essential and nonessential amino acids, 0.2% pediatric trace elements, 0.5% pediatric multivitamins, 30 mEq of sodium, 20 mEq of potassium, 15 mEq of calcium (as calcium gluconate), 10 mEq of magnesium, 10 mEq of phosphate, 5 mEq of acetate, and 30 mEq of chloride per liter) administered as a single 50 mL bottle per cage which mice consumed ad libitum. […] Prince et al., JPEN J Parenter Enteral Nutr., 2014; 38(5): 608-616.
In a subsequent experiment, both Compound A and Compound B were tested at two dosages. The results of this experiment are described in Example 15.
Male C57BL/6 mice, 6 to 8 weeks old at initiation of the experiments, were used for all experimental groups. One group was fed an ad libitum diet of standard rodent chow and water. The group fed standard rodent chow received no additional treatments during the experimental period and served as a negative control group. Seven other groups (10 mice per group) were fed the PN solution described above ad libitum.
Of the seven groups that received the PN diet, each group received one of the following orogastric protocols administered every other day over 19 days: • (1) Saline: saline solution administered isovolumetric with the Omegaven® group; • (2) MCT: medium-chain triglyceride oil (MCT) (Nestle™ HealthCare Nutrition, Florham Park, NJ), at a dose of 7.4 g of fat/kg body weight; • (3) Omegaven®: Omegaven® (commercial fish oil lipid emulsion) at a dose of 2.4 g fat/kg body weight; • (4) Compound A LOW: Compound A at a dose of 0.3 mmol/kg bw day (diluted in MCT to 0.0375 mmol/mL, resulting in administration of 7.4 g of MCT/kg weight); • (5) Compound A HI: Compound A at a dose of 0.6 mmol/kg bw day (diluted in MCT to 0.075 mmol/mL, resulting in administration of 7.4 g of MCT/kg weight); • (6) Compound B LOW: Compound B at a dose of 0.3 mmol/kg bw day (diluted in MCT to 0.0375 mmol/mL, resulting in administration of 7.4 g of MCT/kg weight); and • (7) Compound B HI: Compound B at a dose of 0.6 mmol/kg bw day (diluted in MCT to 0.075 mmol/mL, resulting in administration of 7.4 g of MCT/kg weight).
After 19 days of treatment, organs were harvested, including the liver, kidney, and spleen, which were analyzed for relative weight between each group. Livers were also fixed and frozen on dry ice, then stored at −80° C. for hematoxylin and eosin (H&E) stain analysis and Oil Red O analysis.

The test system of a further series is ob/ob AMLN mice. The series can be described thus: Glycemic control (oral glucose tolerance test, fasting glucose and insulin) in ob/ob AMLN mice. The note with it: 0.3 mmol/kg bw day. How it is done: (§1) ob/ob mice are consistently fibrosis (liver) prone when cholesterol (2%) and 40% fat (containing 18% trans-fatty acids) and 20% fructose are added to a high-caloric diet (i.e., AMLN diet). ob/ob mice on AMLN diet (termed ‘ob/ob AMLN mice’) develop steatohepatitis and fibrosis within a shorter timeframe (<12 weeks) compared with wild-type C57BL/6 mice (AMLN mice) fed the same diet. ob/ob AMLN mice provide an obese diet-induced model of NASH that also allows the study of effects on glycemic control.
Thirty male ob/ob mice (5 weeks old) were fed the AMLN diet for 15 weeks then randomised into 3 groups of 10 mice/group to receive Compound B or Compound A (both at 0.3 mmol/kg bw day) or no treatment (vehicle) for a further 4 weeks. Assessment of the hepatic expression of key genes regulating plasma lipid concentrations (LDLr), hepatic fibrosis (collA1), bile acid transport/re-uptake (Slc51b and Slc10a2) and inflammation (CD68) was made via RNA sequencing at 4 weeks. […] An additional group of mice (n=5) were also treated with a PPAR-γ agonist (pioglitazone, 30 mg/kg bw day) was also included to compare effects upon bodyweight.

Series [1] in a line: Relative bodyweight in ob/ob AMLN mice. Conditions: 0.3 mmol/kg bw day, 4 weeks treatment, FIG. 11. How it is done:
as §1
(§2) Thirty male ob/ob mice (5 weeks old) were fed the AMLN diet for 15 weeks then randomised into 3 groups of 10 mice/group to receive Compound B or Compound A (both at 0.3 mmol/kg bw day) or no treatment (vehicle) for a further 4 weeks. Assessment of the hepatic expression of key genes regulating plasma lipid concentrations (LDLr), hepatic fibrosis (collA1), bile acid transport/re-uptake (Slc51b and Slc10a2) and inflammation (CD68) was made via RNA sequencing at 4 weeks. To assess the effects of Compound B and Compound A on glycemic control, an oral glucose tolerance test (OGTT) was also performed at 3 weeks. An additional group of mice (n=5) were also treated with a PPAR-γ agonist (pioglitazone, 30 mg/kg bw day) was also included to compare effects upon bodyweight.

Series [2] concerns hepatic expression of key genes. Description: Hepatic target gene expression via RNA sequencing in ob/ob AMLN mice. Conditions: 0.3 mmol/kg bw day, 4 weeks treatment. How it is done: as §1, §2
Setting [3] is: high-fat high-cholesterol diet, 4 weeks treatment.
Where [4] appears, read: high-fat high-cholesterol diet, 4 weeks treatment, dose 0.1 mmol/kg bw/day.
[5] abbreviates: high-fat high-cholesterol diet, 4 weeks treatment, dose 0.3 mmol/kg bw/day.
Setting [6] is: oral PN diet, high and low dosages, FIG. 18.

As to `CC/C=C\COc1cccc(C(=O)O)c1C` [Compound B, (Z)-2-methyl-3-(pent-2-en-1-yloxy)benzoic acid], in the series with APOE*3Leiden mice (setting [3]), the “plasma TG versus vehicle” value is “significantly reduce” and the “total plasma cholesterol versus vehicle” value is “significantly reduce”. Besides, in the series with APOE*3Leiden mice (setting [4]), the “Reduction in plasma TG vs control (%)” value is given as 45** % and the “Reduction in plasma cholesterol vs control (%)” value is listed as 24** %. In the series on APOE*3Leiden mice (setting [5]), the “Reduction in plasma TG vs control (%)” value is 63** % and the “Reduction in plasma cholesterol vs control (%)” value is 27** %. Also, the “development of steatosis induced by an oral PN diet (H&E stain in isolated liver sections)” value with C57BL/6 mice (0.3 and 0.6 mmol/kg bw day in MCT by orogastric gavage, FIGS. 14-17) is “prevented the development of steatosis”. For the same compound, in the series with C57BL/6 mice (setting [6]), the “body mass vs chow-fed or PN-fed saline groups” value is given as “not significantly different”, the “liver/body mass vs chow-fed or PN-fed saline groups” value is on record as “not significantly different” and the “spleen/body mass vs chow-fed or PN-fed saline groups” value was “not significantly different”. Also, the “total plasma glucose (area-under-the-curve from 0-240 mins) versus vehicle in response to an oral glucose load” value in the series with ob/ob AMLN mice (after 3 weeks treatment, FIG. 1) is given as “significantly reduce”. Besides, the “plasma glucose at 30- and 60-mins versus vehicle in response to an oral glucose load” value in the series with ob/ob AMLN mice (after 3 weeks treatment, FIG. 2) is listed as “significantly reduce”. Also, the “fasting plasma insulin versus vehicle” value with ob/ob AMLN mice (after 4 weeks treatment, FIG. 3) is “reduce”. In addition, in the series with ob/ob AMLN mice (after 4 weeks treatment, FIG. 4), the “fasting plasma glucose versus vehicle” value is “significantly reduce”. Moreover, in series [1], the “relative bodyweight versus vehicle” value is on record as “no effect”. For the same compound, the “hepatic expression of Coll al (collagen1a1) versus vehicle” value in series [2] (FIG. 5) is recorded as “significantly reduce”. Also, the “expression of hepatic LDLr versus vehicle” value in series [2] (FIG. 12) is listed as “significantly increase”.
For the compound `CC/C=C\COc1cccc(C(=O)O)c1` [Reference Compound 1, (Z)-3-(pent-2-en-1-yloxy)benzoic acid, reference compound], the “triglyceride levels over 4 weeks” value in the series with APOE*3Leiden mice is reported as “did affect”.
The same measure, in the same setting: under `CC/C=C\COc1ccc(C(=O)O)cc1` [Reference Compound 2, (Z)-4-(pent-2-en-1-yloxy)benzoic acid, reference compound] stands “did affect”.
